These results are taken from patent US9132191B2, “Compositions and methods of preventing or ameliorating abnormal thrombus formation and cardiovascular disease” (Yale University, priority 2011, dated 2015).

pIC50: −log10 of the molar value.

For one assay, the system named is washed platelet. In words: Aggregometry of washed platelets incubated with AR inhibitors (Example 12). It is filed as cell-based. The settings on record: Homo sapiens, 10 μM inhibitor, 1 hour at 37° C., collagen 1 μg/mL, light transmission 5 min, read-out: % reduction (platelet aggregation, light transmission). As for the experimental part: Platelet-poor plasma (PPP) was obtained by centrifugation of the rest of the blood at 1400 g at 25° C. for 10 min. The PRP was adjusted with PPP to 2−3×10^8 platelets/mL suspensions. For the washed platelets, PRP was obtained by centrifugation at 250 g for 15 min, and platelets were sedimented at 1,000 g for 15 min, and then resuspended in washing buffer (103 mmol/L NaCl, 5 mmol/L KCl, 1 mmol/L MgCl2, 5 mmol/L glucose, 36 mmol/L citric acid) at pH 6.5 containing 3.5 mg/mL bovine serum albumin (Sigma). After sedimentation, the platelets were washed twice in this buffer and resuspended at 2−3×10^8 platelets/mL in the buffer composed of 5 mmol/L HEPES, 137 mmol/L NaCl, 2 mmol/L KCl, 1 mmol/L MgCl2, 12 mmol/L NaHCO3, 0.3 mmol/L NaH2PO4, 5.5 mmol/L glucose, pH 7.4, containing 3.5 mg/mL BSA (Saxena et al., 1989, Science 243:1596-1599).
Washed platelet (1×10^8) were incubated with AR inhibitors for 1 hour at 37° C. For aggregometry studies, 0.5 μL of collagen solution (with a final concentration of 1 μg/mL) was added into 500 μL of washed platelet, and then the light transmission was measured for 5 min. […] The percentage of platelet aggregation, as measured in terms of light transmission, is summarized in FIG. 17, and representative tracings are depicted in FIG. 18.

Another assay addresses aldose reductase (Homo sapiens, UniProt P15121). The following applies: aldose reductase inhibitor IC50; no method given; cited from earlier work.
A further assay concerns p38α MAPK. The assay is described as follows: p38α MAPK phosphorylation in collagen-stimulated platelets (phospho-kinase array, Western blot). The class given is cell-based, human. The settings on record: NG and HG; 1 μg/mL collagen 10 min; epalrestat 10 μmol/L, U73122, NAC 1 mmol/L, quercetin 10 μmol/L. The method, then: Platelets were homogenized in the lysis buffer (25 mmol/L Tris HCl, pH 7.6, 150 mmol/L NaCl, 1% NP-40, 1% sodium deoxycholate, 0.1% SDS) with the addition of 0.1% protease inhibitor and 0.1% phosphatase inhibitor (Thermo Scientific). The supernatant was collected after centrifugation at 13,000 rpm for 15 min at 4° C. The samples are loaded in 4×SDS-Laemmli sample buffers and boiled for 10 min. Equal amounts of total extracts were subjected to SDS-PAGE. The proteins were transferred to nitrocellulose membrane and probed with the indicated antibodies, and the antigen-antibody complex was detected by enhanced chemiluminescence reagents (Thermo Scientific).
(§1) Primary antibodies against the following proteins were diluted and used according to the manufacturer's instructions: AR (sc-17732, Santa Cruz Biotechnology), PKC α (sc-208, Santa Cruz Biotechnology) and its phosphorylated form (sc-136018, Thr638, Santa Cruz Biotechnology), PKC βII (NB110-57358, Novus Biologicals) and its phosphorylated form (NSB964, Thr641, Novus Biologicals), PKC δ (2058, Cell Signaling) and its phosphorylated form (9376, Ser643, Cell Signaling), PLC-γ1 (H00005335-A01, Novus Biologicals) and its phosphorylated form (07866, Tyr783, Millipore), PLC-γ2 (NB110-66669, Novus Biologicals) and its phosphorylated form (NB110-57424, Tyr1217, Novus Biologicals), p38α MAPK (9212, Cell Signaling) and its phosphorylated form (AF869, T180/Y182, R&D Systems), and TX receptor (NBP1-40198, Novus Biologicals). Secondary antibodies against rabbit and mouse IgG (Thermo Scientific) were diluted 1:5000 before use. The membrane was re-probed with antibodies against Na^+/K^+-ATPase (NB300-147, Novus Biologicals), a plasma membrane marker, and GAPDH (sc-20357, Santa Cruz Biotechnology), a cytoplasmic marker, for normalization.
The human phospho-kinase array was performed according to the manufacturer's instruction (R&D Systems). […] The signals for the amount of phosphorylated proteins bound were measured by the chemiluminescent detection method.
On the technique in general: In western blotting, separated proteins are transferred to a membrane and probed.

For assay [1], the system named is thromboxane receptor (TP). In words: Surface expression of thromboxane receptor in collagen-stimulated platelets. It is filed as cell-based, human. The following applies: HG; 1 μg/mL collagen; epalrestat 10 μmol/L, NAC, apocynin. As for the experimental part: as §1
Platelets were sedimented by centrifugation at 2,500 g for 5 min. The membrane and cytosolic fractions of total extracts were separated using the subcellular protein fractionation kit (Thermo Scientific). […]

Assay [2] concerns human platelets. In words: Oxidative stress and superoxide level in collagen-stimulated platelets. It is filed as cell-based. The settings on record: NG and HG, epalrestat 10 μmol/L, 10 mmol/L NAC, 100 μmol/L apocynin. The method, then:
The oxidative stress and superoxide level was measured by a commercial kit according to the manufacturer's instruction (Total ROS/Superoxide Detection Kit, Enzo Life Sciences). Platelets were sedimented by centrifugation at 400 g for 5 min, and then washed. The washed platelets were incubated with 1 μmol/L ROS/Superoxide detection mix for 60 min at 37° C. in the presence or absence of 1 μg/mL collagen.

Assay [3] has as its system human platelets. In words: Collagen-induced platelet aggregation (light transmission, Lumi-aggregometer). The class given is cell-based. The settings on record: NG or HG 90 min; 1 μg/mL collagen; SB239063 50 μmol/L, U73122 5 μmol/L, quercetin 10 μmol/L, SQ29548 10 μmol/L, NAC, apocynin 100 μmol/L. The method, then: Venous blood was drawn from volunteers at Yale University Medical School, free from medication known to interfere with platelet function. […] PRP was obtained by centrifugation of blood at 250 g at 37° C. for 15 min and the platelet count in the PRP was estimated by an automated cell counter.
Platelet-poor plasma (PPP) was obtained by centrifugation of the rest of the blood at 1400 g at 25° C. for 10 min. The PRP was adjusted with PPP to 2−3×10^8 platelets/mL suspensions.
Platelet aggregation was monitored at 37° C. with constant stirring (1,200 rpm) in a dual-channel Lumi-aggregometer (Chrono-Log model 700). Platelet aggregation was measured as the increase in light transmission for 10 min, starting with the addition of 0.5 μL of 1 mg/mL collagen (Chrono-Log) as a proaggregatory stimulus. For measuring ADP-stimulated platelet aggregation, 1 μM ADP (Chrono-Log) was used. The maximum aggregation was expressed as percentage of maximum light transmission, with non-stimulated platelet-rich plasma being 0% and platelet-poor plasma 100%.

For assay [4], the system named is human platelets. The assay is described as follows: Thromboxane biosynthesis (TXB2 EIA in platelet supernatant). It is filed as cell-based. The settings on record: NG or HG; 1 μg/mL collagen; U73122 5 μmol/L, SB239063 50 μmol/L, SQ29548 10 μmol/L. The method, then: Platelets were sedimented by centrifugation at 2,500 g for 5 min, and the supernatant was harvested for the measurement of TX levels. Since TXA2 is rapidly hydrolyzed into TXB2, the level of TXB2 was measured using TXB2 EIA kit according to the manufacturer's ELISA instructions (Cayman Chemical).

A further assay deals with T1, platelet COX-1 (Homo sapiens, UniProt P23219).
T1 construct: in whole blood allowed to clot for 1 h at 37° C; (serum TXB2) which is an index of maximal capacity of platelets; endogenous in cells; host or cells: platelets in whole blood of diabetic patients and healthy subjects
The assay is described as follows: Residual serum TXB2 generation in clotted whole blood (index of platelet COX-1 activity). The class given is cell-based.

The pIC50 is −log10 of the IC50, conventionally taken in molar units.

T1 sequence (P23219 24-599): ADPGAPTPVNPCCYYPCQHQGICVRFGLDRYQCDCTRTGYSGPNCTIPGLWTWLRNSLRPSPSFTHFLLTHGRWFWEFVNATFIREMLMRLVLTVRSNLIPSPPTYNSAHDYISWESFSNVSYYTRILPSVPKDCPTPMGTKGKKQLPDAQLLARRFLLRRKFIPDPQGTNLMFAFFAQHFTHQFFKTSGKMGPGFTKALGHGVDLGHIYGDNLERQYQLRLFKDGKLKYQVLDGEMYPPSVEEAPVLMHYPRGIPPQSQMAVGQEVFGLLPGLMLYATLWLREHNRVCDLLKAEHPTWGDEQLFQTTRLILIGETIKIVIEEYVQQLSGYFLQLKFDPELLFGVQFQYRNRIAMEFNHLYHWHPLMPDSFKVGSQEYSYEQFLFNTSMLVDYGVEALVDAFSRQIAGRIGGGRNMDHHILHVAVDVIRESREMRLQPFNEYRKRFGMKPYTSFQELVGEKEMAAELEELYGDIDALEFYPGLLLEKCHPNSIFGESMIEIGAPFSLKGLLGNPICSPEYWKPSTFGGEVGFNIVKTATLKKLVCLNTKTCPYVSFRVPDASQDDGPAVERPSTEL
Source text for platelet COX-1: Patients with the presence of type 2 diabetes (n=102) were recruited from the Hospital Policlinico G.B. Rossi (Verona, Italy) and San Pio da Pietrelcina Hospital (Vasto, Italy). Exclusion criteria included concurrent cancer, inflammatory disorder, immunological disorder, surgery or major trauma in the previous month or use of nonsteroidal anti-inflammatory drugs (NSAIDs) or corticosteroids in the previous month. Both the diabetic population and the severe cardiovascular disease population were chronically treated with low dose aspirin for at least one month (enteric coated aspirin 100 mg for at least 7 consecutive days). After recruitment the patients received a standard oral dose of 100 mg for seven days at 8.00 pm. […] The 10 healthy subjects recruited were from the staff of Hospital Policlinico G.B. Rossi (Verona Italy) with normal ECG and echocardiograms and no evidence of atherosclerosis by carotid artery sonography. The healthy subjects were all treated with aspirin 100 mg daily for 1 week.
(serum TXB2) which is an index of maximal capacity of platelets to generate TXB2.
In order to verify whether in these patients higher generation of platelet TXB2 was due to the phenomenon of aspirin resistance which implies that the aspirin target, i.e., COX-1, is less sensitive to inactivation by aspirin, residual generation of TXB2 was assessed after adding aspirin (50 μg/mL) in vitro.

Take `O=C1CC2(C(=O)N1)C(=O)N(Cc1ccc(Br)cc1F)C(=O)c1ccc(F)cc12` (racemic) [IDD 62, (±)-2-(4-Bromo-2-fluorobenzyl)-6-fluorospiro[1,2,3,4-tetrahydroisoquinoline-4,3′-pyrrolidine]-1,2′,3,5′-tetraone]: the inhibition at 10 µM with washed platelet is 59%.
Still for that read-out and setting: next, `O=C1NC(=O)[C@@]2(CCOc3ccc(F)cc32)N1` [IDD 60, (4S)-6-Fluoro-2,3-dihydro-2′H,5′H-spiro[chromene-4,4′-imidazolidine]-2′,5′-dione]: 67%; `COc1ccc2c(C(=S)N(C)CC(=O)O)cccc2c1C(F)(F)F` [IDD 63, N-{[6-methoxy-5-(trifluoromethyl)-1-naphthyl]carbothioyl}-N-methylglycine]: 78%; `O=C(O)Cc1nn(Cc2nc3cc(C(F)(F)F)ccc3s2)c(=O)c2ccccc12` [IDD 65, 3,4-Dihydro-4-oxo-3-[[5-(trifluoromethyl)-2-benzothiazolyl]methyl]-1-phthalazineacetic acid]: 50%.
With `CCCCCOc1ccc(C2SC(=O)NC2=O)cc1OCC` (centres unmarked) [IDD 73, 5-[3-Ethoxy-4-(pentyloxy)phenyl]-2,4-thiazolidinedione], on aldose reductase, the pIC50 is 6.53. The inhibition at 10 µM with washed platelet stood at 54%.
In the case of `O=C(O)Cn1c(=O)n(Cc2ccc(Br)cc2F)c(=O)c2ccc(Cl)cc21` [IDD 148, 3-(2-Fluoro-4-bromobenzyl)-7-chloro-2,4(1H,3H)-dioxoquinazoline-1-acetic acid], the inhibition at 10 µM in the assay on washed platelet came to 61%.
For `O=C(O)CN1C(=O)C(=O)N(Cc2cccc([N+](=O)[O-])c2)C1=O` [IDD 314, 3-(3-nitrobenzyl)-2,4,5-trioxoimidazolidine-1-acetic acid], the pIC50 at aldose reductase is 6.14. Moreover, the inhibition at 10 µM in the assay with washed platelet worked out at 52%.
For `O=C(O)Cn1cc(Cc2nc3c(F)c(F)cc(F)c3s2)c2ccccc21` [IDD 676, [3-(4,5,7-Trifluorobenzothiazol-2-ylmethyl)indol-1-yl]acetic acid], the inhibition at 10 µM with washed platelet came to 54%.
With `CC(=O)N[C@@H](CS)C(=O)O` [NAC, N-acetyl-cysteine], the “collagen-induced phosphorylation of p38α MAPK (Western blot)” value (from here on “collagen-induced phosphorylation”) in the assay with p38α MAPK was “significantly reduced”. The “surface expression of TX receptor (TP)” value in assay [1] is recorded as “significantly attenuated”. In the assay with human platelets [2], the “level of oxidative stress and superoxide” value was “significantly reduced”. Besides, the “collagen-induced platelet aggregation (signalling inhibitors)” value in the assay on human platelets [3] was “attenuated the collagen-induced platelet aggregation to a similar extent as ARI”.
In the case of `COc1nccc(-c2c(-c3ccc(F)cc3)ncn2[C@H]2CC[C@H](O)CC2)n1` [SB239063, trans-4-[4-(4-fluorophenyl)-5-(2-methoxy-4-pyrimidinyl)-1H-imidazol-1-yl]cyclohexanol], the “collagen-induced TXB2 (TXA2) release (signalling inhibitors)” value in the assay with human platelets [4] was “attenuated the collagen-induced TXB2 release”. Further, the “collagen-induced platelet aggregation (signalling inhibitors)” value in the assay on human platelets [3] was “reduced platelet aggregation”.
For `O=C(O)CCC/C=C\C[C@@H]1[C@H](CNNC(=O)Nc2ccccc2)[C@H]2CC[C@@H]1O2` [SQ29548, 1S-[1-alpha,2-beta-(5Z),3-beta,4-alpha]-7-[3-[[2-[(phenylamino)carbonyl]hydrazino]methyl]-7-oxabicyclo[2.2.1]hept-2-yl]-5-heptenoic acid] the same measures were “attenuated collagen-induced TXA2 release” and “attenuated the collagen-induced platelet aggregation”.
As to `COc1ccc2c(c1)CC[C@@H]1[C@@H]2CC[C@]2(C)[C@@H](NCCCCCCN3C(=O)C=CC3=O)CC[C@@H]12` [U73122], the “collagen-induced phosphorylation” value in the assay with p38α MAPK is listed as “significantly reduced”. Besides, the “collagen-induced TXB2 (TXA2) release (signalling inhibitors)” value in the assay on human platelets [4] is “attenuated the collagen-induced TXB2 release”. For the same molecule, the “collagen-induced platelet aggregation (signalling inhibitors)” value in the assay on human platelets [3] is “reduced platelet aggregation”.
As to `COc1cc(C(C)=O)ccc1O` [apocynin], the “surface expression of TX receptor (TP)” value in assay [1] is given as “significantly attenuated”. Besides, the “level of oxidative stress and superoxide” value in the assay on human platelets [2] is “significantly reduced”. Besides, the “collagen-induced platelet aggregation (signalling inhibitors)” value in the assay on human platelets [3] was “attenuated the collagen-induced platelet aggregation to a similar extent as ARI”.
As to `CC(=O)Oc1ccccc1C(=O)O` [aspirin, Acetylsalicylic Acid], the “diabetic patients with residual TXB2 levels higher than 4 ng/mL with aspirin in vitro” value on platelet COX-1 (aspirin 50 μg/mL added in vitro) stood at 2%. On platelet COX-1 (aspirin 50 μg/mL in vitro, diabetic patients and healthy subjects on aspirin 100 mg/day, blood clotted 1 h at 37° C.), the “residual TXB2 generation after adding aspirin in vitro” value is listed as “further significant reduction”. Besides, on platelet COX-1 (ex vivo, 12 h after the last dose of aspirin 100 mg/day), the “diabetic patients with residual serum TXB2 higher than 4 ng/mL” value is recorded as 12%.
Turning to `O=c1c(O)c(-c2ccc(O)c(O)c2)oc2cc(O)cc(O)c12` [quercetin], the “collagen-induced phosphorylation” value in the assay with p38α MAPK is “attenuated”. Further, the “collagen-induced platelet aggregation (signalling inhibitors)” value in the assay with human platelets [3] is recorded as “reduced platelet aggregation”.
